# Laboratory results: patent publication US20230129485A1, “SYSTEM AND METHOD FOR DETERMINING MATERIAL PROPERTIES OF MOLECULAR SYSTEMS FROM AN AB-INITIO PARAMETERIZED FORCE-FIELD” (InterX, Inc., priority 2021, published 2023)
# Like-named read-outs stand apart in the source and are kept apart here.
# What was measured:
# [1] = Free energy of hydration predicted with the QM-parameterized force field model (ARROW FF), classical MD and PIMD simulation in a water box; conditions: for Arrow PIMD8 Error: absolute error vs Exp (hydration)
# Source text: For example, the example QM-parameterized force-field molecular simulation process 400 can use Bennett Acceptance Ratio (BAR) to compute the free energy of hydration/solvation of the molecule in water or any other solvent. In some implementations, the analysis of the molecular dynamics simulations includes analysis, predication, and visualization of ensemble properties of atoms/molecules from atomic and molecular trajectories using the optimized parameters of the QM-parameterized force field model (i.e., the quantum mechanics rule-based reasoning technique) and the QM-parameterized force field model.
# (§1) In some simulations of the QM-parameterized force field molecular simulation process, the molecules were placed in a water or cyclohexane box of size 32×32×32 Å3. Particle-Mesh Ewald (PME) algorithm was used to compute the electrostatic interactions. A 32×32×32 grid mesh and 5th power spline interpolation order can be used to compute the inverse PME sum. 9 Å cutoffs were used to compute the direct PME sum as well as the exchange and dispersion interactions. Bulk corrections were applied to account for distance cut-off of dispersion interactions. Solvation free energies were computed by decoupling the interactions between the solute and the solvent molecules. Electrostatic, exchange-repulsion and dispersion interactions were switched off simultaneously using a lambda-dependent scaling (a scaling factor power=2 was used) and a soft-coring algorithm (maximal soft-coring radius=1.5 Å, soft-coring radius scaling factor power=1). 15 lambda points unequally spaced (X=0, 0.05, 0.1, 0.2, 0.3, 0.4, 0.5, 0.6, 0.7, 0.75, 0.8, 0.85, 0.9, 0.95, 1.0) were used to decouple the solute-solvent intermolecular interactions.
# (§2) In some simulations of the QM-parameterized force field molecular simulation process, energy minimization (10,000 steps) using the steepest descent algorithm was initially performed on all the simulation systems. This was followed by a 50 ps equilibration and 1 ns production runs in the isothermal-isobaric ensemble (NPT). […] Pressure was maintained at 1 atm using a MTTK barostat (relaxation time=5 ps). A Multiple Time Step (MTS) algorithm was used to integrate the equations of motion both for the classical and path-integral runs. […] The calculations were performed using the QM-parameterized force field model.
# Using the QM-parameterized force field model, the QM-parameterized force field device can compute or predict the solvation free energies using both the Bennett acceptance ratio (BAR) and thermodynamic integration (TI) method with <dH/dλ> values interpolated by cubic splines. […] FIG. 7A illustrates a <dH/dλ> dependence for desolvation of Anthracene in water. FIG. 7B illustrates accumulated statistical errors for TI calculations of AG desolvation of Anthracene in water.
# [2] = CHEX/H2O partition coefficient (log D) predicted with the QM-parameterized force field model (ARROW FF)
# Source text: In some simulations, the example QM-parameterized force-field molecular simulation process includes using the functional form of the bonded interactions, with force constants and equilibrium values fitted to QM energies at the MP2/aug-cc-pVTZ level of theory. In some simulations, solvents of water and cyclohexane are selected. Cyclohexane (CHEX) is nonpolar and equilibrates relatively quickly. Reliable experimental data for both CHEX solvation free energies, as well as for the CHEX/H2O partition coefficients are used in these simulations.
# In some example simulations, solutes containing neutral chemical functional groups, for example carboxylic acids, alkanes, alkenes, aromatics, aldehydes, ketones, alcohols, amides, esters, thiols, sulfides, disulfides and heterocycles, are used. The simulations were performed independently by four groups using their own respective computational resources and architectures, and then averaged. FIGS. 9A-9C show solvation and hydration free energies predictions of various solutes, using the QM-parameterized force field model, in some embodiments.
# The straight line is a line of agreement between experimental and simulated/predicted values, and the gray bar is the range or chemical accuracy. […] The molecules here are a subset of those in a) because only those with experimental values for CHEX solvation can be included.
# [3] = Free energy of hydration by COSMO implicit solvent model (MolPro ver. 2012); conditions: absolute error vs Exp (hydration)
# Procedure: (§3) Due to unavailability of free energy data for the original COSMO model, the free energies of solvation for the molecule dataset are calculated using MolPro ver. […] The comparisons to other implicit solvent models such as SMD, PCM and COSMO-RS are limited to the overlap of the molecules computed using QM-parameterized force field model. The free energies of hydration as predicted by these implicit solvent models (SMD, PCM) were received.
# [4] = Free energy of hydration by Solvation Model Dielectric (SMD) implicit solvent model; conditions: absolute error vs Exp (hydration)
# Procedure: as §3
# [5] = Free energy of hydration by Polarizable Continuum Model (PCM); conditions: absolute error vs Exp (hydration)
# Procedure: as §3
# [6] = Free energy of hydration by COSMO-RS
# Procedure: as §3
# [7] = experimental, cited from earlier work
# [8] = CHEX/H2O partition coefficient, experimental, cited from earlier work; for Exp (log D): Table 3; for logD Exp (logD): Table 4
# [9] = Free energy of solvation in cyclohexane predicted with the QM-parameterized force field model (ARROW FF), MD and PIMD; conditions: Table 4; for CHEX Arrow MD Error: error of MD cyclohexane solvation free energy vs experiment; for CHEX Arrow PIMD4 Error: error of PIMD4 cyclohexane solvation free energy vs experiment
# Source text: Cyclohexane (CHEX) is nonpolar and equilibrates relatively quickly.
# as §1, with “Particle-Mesh” for “In some simulations of the QM-parameterized force field molecular simulation process, the molecules were placed in a water or cyclohexane box of size 32×32×32 Å3. Particle-Mesh”
# as §2
# Using the QM-parameterized force field model, the QM-parameterized force field device can compute or predict the solvation free energies using both the Bennett acceptance ratio (BAR) and thermodynamic integration (TI) method with <dH/dλ> values interpolated by cubic splines.
# [10] = experimental, cited from earlier work; remark: listed apart in the source
# [11] = implicit solvent model, values received; cited from earlier work
# [12] = implicit solvent model, values received; cited from earlier work; remark: listed apart in the source
# [13] = Table 3, absolute error of MD hydration free energy vs experiment
# [14] = Table 3, absolute error of PIMD8 hydration free energy vs experiment
# [15] = Table 3, absolute error of MD log D vs experiment
# [16] = Table 3, absolute error of PIMD log D vs experiment
# [17] = Table 3, free energy of solvation in cyclohexane
# [18] = Table 4, error of MD hydration free energy vs experiment
# [19] = Table 4, error of PIMD8 hydration free energy vs experiment
# [20] = Table 3, free energy of hydration
# [21] = Table 4, neutral amino-acid analogues
# [22] = Table 4, solvation free energy in cyclohexane
smiles,measurement,setting,value
CCC(C)=O [2-Butanone],water Arrow MD Error,[1]; [13],0.43 kcal/mol
same,water Arrow PIMD8 Error,[1]; [14],0.16 kcal/mol
same,Arrow PIMD8 Error,[1],0.16 kcal/mol
same,log D Arrow MD Error,[2]; [15],0.11
same,log D Arrow PIMD Error,[2]; [16],0.21
same,COSMO/Molpro Error,[3],4.15 kcal/mol
same,SMD Error,[4],0.09 kcal/mol
same,PCM Error,[5],0.19 kcal/mol
same,COSMO-RS error,[6],0.17 kcal/mol
same,CHEX Exp (solvation),[7]; [17],-3.47 kcal/mol
same,Exp (log D),[8],−0.18
Cc1c[nH]c2ccccc12 [3-methyl-indole],water Arrow MD Error,[1]; [13],2.00 kcal/mol
same,water Arrow PIMD8 Error,[1]; [14],1.02 kcal/mol
same,water Arrow MD Error,[1]; [18],2.00 kcal/mol
same,water Arrow PIMD8 Error,[1]; [19],1.02 kcal/mol
same,Arrow PIMD8 Error,[1],1.02 kcal/mol
same,hydration error,[1]; predicted vs experimental free energy of hydration,-1 kcal/mol
same,CHEX Arrow MD Error,[9],0.24 kcal/mol
same,CHEX Arrow PIMD4 Error,[9],0.01 kcal/mol
same,log D Arrow MD Error,[2],1.29
same,log D Arrow PIMD Error,[2],0.76
same,logD Arrow MD Error,[2],1.29
same,logD Arrow PIMD Error,[2],0.76
same,COSMO/Molpro Error,[3],1.95 kcal/mol
same,COSMO-RS error,[6],0.99 kcal/mol
same,water Exp (hydration),[10]; [20],-5.88 kcal/mol
same,water Exp (hydration),[10]; [21],-5.88 kcal/mol
same,CHEX Exp (solvation),[7]; [17],-8.08 kcal/mol
same,CHEX Exp (solvation),[7]; [22],-8.08 kcal/mol
same,Exp (log D),[8],1.61
same,logD Exp (logD),[8],1.61
Cc1c[nH]cn1 [Methylimidazole (His)],water Arrow MD Error,[1]; [18],0.40 kcal/mol
same,water Arrow PIMD8 Error,[1]; [19],0.03 kcal/mol
same,CHEX Arrow MD Error,[9],0.33 kcal/mol
same,CHEX Arrow PIMD4 Error,[9],0.09 kcal/mol
same,logD Arrow MD Error,"[2]; Table 4, error of MD logD vs experiment",0.05
same,logD Arrow PIMD Error,"[2]; Table 4, error of PIMD logD vs experiment",0.04
same,water Exp (hydration),[10]; [21],-10.06 kcal/mol
same,CHEX Exp (solvation),[7]; [22],-5.59 kcal/mol
same,logD Exp (logD),[8],−3.28
c1ccc2ccccc2c1 [Napthalene],water Arrow MD Error,[1]; [13],0.74 kcal/mol
same,water Arrow PIMD8 Error,[1]; [14],0.24 kcal/mol
same,Arrow PIMD8 Error,[1],0.24 kcal/mol
same,log D Arrow MD Error,[2]; [15],0.19
same,log D Arrow PIMD Error,[2]; [16],0.01
same,COSMO/Molpro Error,[3],2.11 kcal/mol
same,SMD Error,[4],0.90 kcal/mol
same,PCM Error,[5],0.10 kcal/mol
same,COSMO-RS error,[6],0.23 kcal/mol
same,water Exp (hydration),[10]; [20],-2.40 kcal/mol
same,CHEX Exp (solvation),[7]; [17],-7.17 kcal/mol
same,SMD free energy of hydration,[11],-1.50 kcal/mol
same,PCM free energy of hydration,[12],-2.30 kcal/mol
same,Exp (log D),[8],3.50
CCCCC [Pentane],log D Arrow MD Error,[2],0.39
same,log D Arrow PIMD Error,[2],0.17
same,Exp (log D),[8],4.28
CCCS [Propanethiol],water Arrow MD Error,[1]; [13],0.81 kcal/mol
same,water Arrow PIMD8 Error,[1]; [14],0.40 kcal/mol
same,Arrow PIMD8 Error,[1],0.40 kcal/mol
same,log D Arrow MD Error,[2]; [15],0.38
same,log D Arrow PIMD Error,[2]; [16],0.36
same,COSMO/Molpro Error,[3],2.88 kcal/mol
same,SMD Error,[4],0.15 kcal/mol
same,PCM Error,[5],1.15 kcal/mol
same,water Exp (hydration),[10]; [20],-1.05 kcal/mol
same,CHEX Exp (solvation),[7]; [17],-3.12 kcal/mol
same,SMD free energy of hydration,[11],-0.90 kcal/mol
same,PCM free energy of hydration,[12],-2.20 kcal/mol
same,Exp (log D),[8],1.52
CCCCN [butanamine],water Arrow MD Error,[1]; [13],1.17 kcal/mol
same,water Arrow PIMD8 Error,[1]; [14],0.28 kcal/mol
same,water Arrow MD Error,[1]; [18],1.17 kcal/mol
same,water Arrow PIMD8 Error,[1]; [19],0.28 kcal/mol
same,Arrow PIMD8 Error,[1],0.28 kcal/mol
same,CHEX Arrow MD Error,[9],0.06 kcal/mol
same,CHEX Arrow PIMD4 Error,[9],0.06 kcal/mol
same,log D Arrow MD Error,[2],0.81
same,log D Arrow PIMD Error,[2],0.16
same,logD Arrow MD Error,[2],0.81
same,logD Arrow PIMD Error,[2],0.16
same,COSMO/Molpro Error,[3],1.55 kcal/mol
same,SMD Error,[4],0.74 kcal/mol
same,PCM Error,[5],1.44 kcal/mol
same,COSMO-RS error,[6],0.11 kcal/mol
same,water Exp (hydration),[10]; [20],-4.24 kcal/mol
same,water Exp (hydration),[10]; [21],-4.24 kcal/mol
same,CHEX Exp (solvation),[7]; [17],-3.92 kcal/mol
same,CHEX Exp (solvation),[7]; [22],-3.92 kcal/mol
same,SMD free energy of hydration,[11],-3.50 kcal/mol
same,PCM free energy of hydration,[12],-2.80 kcal/mol
same,Exp (log D),[8],−0.23
same,logD Exp (logD),[8],−0.23
CCCC(=O)O [butyricacid],water Arrow MD Error,[1]; [13],0.25 kcal/mol
same,water Arrow PIMD8 Error,[1]; [14],0.40 kcal/mol
same,Arrow PIMD8 Error,[1],0.40 kcal/mol
same,COSMO/Molpro Error,[3],2.19 kcal/mol
same,SMD Error,[4],0.95 kcal/mol
same,PCM Error,[5],2.05 kcal/mol
same,COSMO-RS error,[6],0.11 kcal/mol
same,water Exp (hydration),[10]; [20],-6.35 kcal/mol
same,SMD free energy of hydration,[11],-5.40 kcal/mol
same,PCM free energy of hydration,[12],-4.30 kcal/mol
CCCC=O [buytyraldehyde],water Arrow MD Error,[1]; [13],0.61 kcal/mol
same,water Arrow PIMD8 Error,[1]; [14],0.07 kcal/mol
same,Arrow PIMD8 Error,[1],0.07 kcal/mol
same,COSMO/Molpro Error,[3],4.47 kcal/mol
same,SMD Error,[4],0.18 kcal/mol
same,PCM Error,[5],0.52 kcal/mol
same,COSMO-RS error,[6],0.07 kcal/mol
same,water Exp (hydration),[10]; [20],-3.18 kcal/mol
same,SMD free energy of hydration,[11],-3.00 kcal/mol
same,PCM free energy of hydration,[12],-3.70 kcal/mol
C=CCCC [pent-1-ene],water Arrow MD Error,[1]; [13],0.59 kcal/mol
same,water Arrow PIMD8 Error,[1]; [14],0.25 kcal/mol
same,Arrow PIMD8 Error,[1],0.25 kcal/mol
same,COSMO/Molpro Error,[3],3.57 kcal/mol
same,SMD Error,[4],0.28 kcal/mol
same,PCM Error,[5],2.48 kcal/mol
same,COSMO-RS error,[6],0.56 kcal/mol
same,water Exp (hydration),[10]; [20],1.68 kcal/mol
same,SMD free energy of hydration,[11],1.40 kcal/mol
same,PCM free energy of hydration,[12],-0.80 kcal/mol
